How the values were obtained:
IKKε = target: T1, IKKε (Homo sapiens, UniProt Q14164); test: IKKε biochemical assay; conditions: 10 point 1:4 dose response, 30 uM top concentration, 90 min at 25° C., LabChip EZ Reader II; read-out: IKKε_IC50
T1 sequence (Q14164 1-716): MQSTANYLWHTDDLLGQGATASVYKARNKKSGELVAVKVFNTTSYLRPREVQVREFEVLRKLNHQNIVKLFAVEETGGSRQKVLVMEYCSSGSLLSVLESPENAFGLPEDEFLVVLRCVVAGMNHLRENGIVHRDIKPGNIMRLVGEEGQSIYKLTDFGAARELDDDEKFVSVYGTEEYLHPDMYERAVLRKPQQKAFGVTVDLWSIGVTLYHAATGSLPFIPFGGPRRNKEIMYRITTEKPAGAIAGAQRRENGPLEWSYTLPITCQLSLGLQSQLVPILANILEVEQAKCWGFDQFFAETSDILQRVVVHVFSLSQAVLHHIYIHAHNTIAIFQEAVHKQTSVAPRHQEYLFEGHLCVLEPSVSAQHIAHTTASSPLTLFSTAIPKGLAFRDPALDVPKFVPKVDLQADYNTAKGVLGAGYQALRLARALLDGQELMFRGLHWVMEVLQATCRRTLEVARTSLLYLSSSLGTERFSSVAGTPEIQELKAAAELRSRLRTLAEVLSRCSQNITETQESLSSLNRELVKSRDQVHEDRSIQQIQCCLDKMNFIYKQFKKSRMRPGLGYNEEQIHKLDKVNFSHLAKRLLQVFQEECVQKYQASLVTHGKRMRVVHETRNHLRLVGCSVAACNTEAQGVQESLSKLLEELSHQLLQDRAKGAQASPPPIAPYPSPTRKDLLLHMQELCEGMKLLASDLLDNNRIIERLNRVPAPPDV
Summary of the method: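 Compounds in 1% DMSO final were incubated with IKKε enzyme and substrate at 25° C. for 90 min, then stopped. Substrate and product peaks were resolved by LabChip EZ Reader II mobility-shift read-out. Staurosporine at 10 uM final served as the full-inhibition control.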

TBK1 = target: T2, TBK1 (Homo sapiens, UniProt Q9UHD2); test: TBK biochemical assay; conditions: 10 point 1:4 dose response, 30 uM top concentration, 90 min at 25° C., LabChip EZ Reader II; read-out: TBK1_IC50
T2 sequence (Q9UHD2 1-729): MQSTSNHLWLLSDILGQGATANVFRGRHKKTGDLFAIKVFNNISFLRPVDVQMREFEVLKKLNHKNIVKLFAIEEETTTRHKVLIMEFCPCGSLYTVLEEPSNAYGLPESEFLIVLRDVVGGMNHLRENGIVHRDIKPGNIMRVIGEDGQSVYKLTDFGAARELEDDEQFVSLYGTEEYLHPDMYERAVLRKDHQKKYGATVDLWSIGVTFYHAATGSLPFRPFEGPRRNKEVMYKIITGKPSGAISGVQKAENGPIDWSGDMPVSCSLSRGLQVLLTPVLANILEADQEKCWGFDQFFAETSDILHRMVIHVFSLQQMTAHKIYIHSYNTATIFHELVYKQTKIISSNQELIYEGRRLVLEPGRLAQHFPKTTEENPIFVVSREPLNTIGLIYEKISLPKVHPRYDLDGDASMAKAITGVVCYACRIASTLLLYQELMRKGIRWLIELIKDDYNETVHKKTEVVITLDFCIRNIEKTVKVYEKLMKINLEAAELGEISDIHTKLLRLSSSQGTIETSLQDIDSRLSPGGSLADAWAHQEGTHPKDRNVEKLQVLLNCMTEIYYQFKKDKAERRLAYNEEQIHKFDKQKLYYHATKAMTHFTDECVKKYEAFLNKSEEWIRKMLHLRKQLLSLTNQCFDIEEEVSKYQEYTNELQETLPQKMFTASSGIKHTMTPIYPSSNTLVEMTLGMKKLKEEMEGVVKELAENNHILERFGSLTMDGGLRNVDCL
Summary of the method: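 Substrate and product were separated and quantified by microfluidic mobility-shift read (LabChip). 10 uM staurosporine served as the full-inhibition control, and the reference compound was tested from 1 uM final.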

SMILES	IC50 (IKKε) [nM]	IC50 (TBK1) [nM]
CN1CCN(c2ccc(Nc3nccc(-c4ccc(OC5CCN(C)CC5(F)F)c(C#N)c4)n3)nc2)CC1 (stereo not shown) [Example 85, 2-[(3,3-difluoro-1-methylpiperidin-4-yl)oxy]-5-(2-[[5-(4-methylpiperazin-1-yl)pyridin-2-yl]amino]pyrimidin-4-yl)benzonitrile]	100 to 1000	100 to 1000
COc1ccc(Nc2nccc(-c3ccc(OC4CCN(C(=O)[C@@H](O)CO)CC4(F)F)c(C#N)c3)n2)nc1OC (stereo partly drawn) [Example 244, 2-[1-((S)-2,3-Dihydroxy-propionyl)-3,3-difluoro-piperidin-4-yloxy]-5-[2-(5,6-dimethoxy-pyridin-2-ylamino)-pyrimidin-4-yl]-benzonitrile]	< 100	< 100
COc1nc(Nc2nccc(-c3ccc(N4CC5(CCNCC5)C4)c(C#N)c3)n2)ccc1N1CCN(C2COC2)CC1 [Example 312, 2-(2,7-Diaza-spiro[3.5]non-2-yl)-5-{2-[6-methoxy-5-(4-oxetan-3-yl-piperazin-1-yl)-pyridin-2-ylamino]-pyrimidin-4-yl}-benzonitrile]	100 to 1000	100 to 1000
C[C@H](O)C(=O)N1CCC(Oc2ccc(-c3nc(Nc4ccc(C5CCN(C6COC6)CC5)cc4)ncc3F)cc2C#N)C(F)(F)C1 (stereo partly drawn) [Example 301, 2-({3,3-difluoro-1-[(2S)-2-hydroxypropanoyl]piperidin-4-yl}oxy)-5-[5-fluoro-2-({4-[1-(oxetan-3-yl)piperidin-4-yl]phenyl}amino)pyrimidin-4-yl]benzonitrile]	< 100	< 100
COc1nc(Nc2nccc(-c3ccc(OC4CCOCC4)c(C#N)c3)n2)ccc1C(=O)N1C2CCCC1COC2 [Example 16, 5-(2-[[6-methoxy-5-([3-oxa-9-azabicyclo[3.3.1]nonan-9-yl]carbonyl)pyridin-2-yl]amino]pyrimidin-4-yl)-2-(oxan-4-yloxy)benzonitrile]	< 100	< 100
COc1nc(Nc2nccc(-c3ccc(OC4CCOC4)c(C#N)n3)n2)ccc1C(=O)N(C)C (stereo not shown) [Example 68, 6-([4-[6-cyano-5-(oxolan-3-yloxy)pyridin-2-yl]pyrimidin-2-yl]amino)-2-methoxy-N,N-dimethylpyridine-3-carboxamide]	< 100	< 100
C[C@H](O)C(=O)N1CCC(Oc2ccc(-c3ccnc(Nc4cccc(C5CCN(C(CO)CO)CC5)c4)n3)cc2C#N)C(F)(F)C1 (stereo partly drawn) [Example 157, 2-[3,3-Difluoro-1-((S)-2-hydroxy-propionyl)-piperidin-4-yloxy]-5-(2-{3-[1-(2-hydroxy-1-hydroxymethyl-ethyl)-piperidin-4-yl]-phenylamino}-pyrimidin-4-yl)-benzonitrile]	< 100	< 100
COc1nc(Nc2nccc(-c3ccc(OC4CCOCC4)c(C#N)c3)n2)ccc1C(=O)N1CCC(C(=O)O)CC1 [Example 13]	< 100	< 100
COCCN1CCN(c2ccc(Nc3nccc(-c4ccc(OC5CCOCC5)c(C#N)c4)n3)nc2OC)CC1 [Example 166]	< 100	< 100
COc1nc(Nc2nccc(-c3ccc(OC4CCN(C(=O)c5cnco5)CC4)c(C#N)c3)n2)ccc1C(=O)N(C)C [Example 79, 6-([4-[3-cyano-4-([1-[(1,3-oxazol-5-yl)carbonyl]piperidin-4-yl]oxy)phenyl]pyrimidin-2-yl]amino)-2-methoxy-N,N-dimethylpyridine-3-carboxamide]	< 100	< 100
COc1nc(Nc2nccc(-c3ccc(OC4CCNCC4(F)F)c(C#N)c3)n2)ccc1N1CCN(C2COC2)[C@H](C)C1 (stereo partly drawn) [Example 124, 2-(3,3-Difluoro-piperidin-4-yloxy)-5-{2-[6-methoxy-5-((R)-3-methyl-4-oxetan-3-yl-piperazin-1-yl)-pyridin-2-ylamino]-pyrimidin-4-yl}-benzonitrile]	< 100	< 100
COc1nc(Nc2nccc(-c3ccc(OC4CCN(C(=O)CO)CC4(F)F)c(C#N)c3)n2)ccc1C1CCN(C)CC1 (stereo not drawn) [Example 234, 2-[[3,3-difluoro-1-(2-hydroxyacetyl)piperidin-4-yl]oxy]-5-(2-[[6-methoxy-5-(l-methylpiperidin-4-yl)pyridin-2-yl]amino]pyrimidin-4-yl)benzonitrile]	< 100	< 100
N#Cc1cc(-c2ccnc(Nc3ccc(N4CCN(C5COC5)CC4)cc3)n2)ccc1OC1CCNCC1(F)F (stereo not shown) [Example 136, 2-[(3,3-difluoropiperidin-4-yl)oxy]-5-[2-([4-[4-(oxetan-3-yl)piperazin-1-yl]phenyl]amino)pyrimidin-4-yl]benzonitrile]	< 100	< 100
COc1nc(Nc2nccc(-c3ccc(OC4CCN(C(=O)CC#N)CC4(F)F)c(C#N)c3)n2)ccc1N1CCN(C2COC2)CC1 (stereo not shown) [Example 253, 2-[1-(2-Cyano-acetyl)-3,3-difluoro-piperidin-4-yloxy]-5-{2-[6-methoxy-5-(4-oxetan-3-yl-piperazin-1-yl)-pyridin-2-ylamino]-pyrimidin-4-yl}-benzonitrile]	< 100	< 100
COc1nc(Nc2nccc(-c3ccc(OC4CCOCC4)c(C#N)c3)n2)ccc1C(=O)N[C@H]1[C@@H]2C[C@H]1CN(C)C2 [Example 19, 6-([4-[3-cyano-4-(oxan-4-yloxy)phenyl]pyrimidin-2-yl]amino)-2-methoxy-N-[(1R,5S,6R)-3-methyl-3-azabicyclo[3.1.1]heptan-6-yl]pyridine-3-carboxamide]	< 100	< 100
COc1nc(Nc2nccc(-c3ccc(OC4CCN(C(=O)[C@@H]5CCC(=O)N5)CC4(F)F)c(C#N)c3)n2)ccc1N1CCN(C2COC2)CC1 (stereo partly drawn) [Example 256, 2,2-[3,3-Difluoro-1-((S)-5-oxo-pyrrolidine-2-carbonyl)-piperidin-4-yloxy]-5-{2-[6-methoxy-5-(4-oxetan-3-yl-piperazin-1-yl)-pyridin-2-ylamino]-pyrimidin-4-yl}-benzonitrile]	< 100	< 100
C[C@H](O)C(=O)N1CCC(Oc2ccc(-c3ccnc(Nc4ccc(C5CCN(C6COC6)C5)cc4)n3)cc2C#N)C(F)(F)C1 (stereo partly drawn) [Example 213, 2-([3,3-difluoro-1-[(2S)-2-hydroxypropanoyl]piperidin-4-yl]oxy)-5-[2-([4-[1-(oxetan-3-yl)pyrrolidin-3-yl]phenyl]amino)pyrimidin-4-yl]benzonitrile]	< 100	< 100
COc1nc(Nc2nccc(-c3ccc(O[C@@H]4CCN(C(=O)[C@H](C)O)C[C@@H]4F)c(C#N)c3)n2)ccc1C1CCN(C2COC2)CC1 [Example 194, 2-[(3S,4R)-3-Fluoro-1-((S)-2-hydroxy-propionyl)-piperidin-4-yloxy]-5-[2-(2-methoxy-1′-oxetan-3-yl-1′,2′,3′,4′,5′,6′-hexahydro-[3,4′]bipyridinyl-6-ylamino)-pyrimidin-4-yl]-benzonitrile]	< 100	< 100
CN1CCN(c2ccc(Nc3nccc(-c4ccc(OC5CCOCC5)c(C#N)c4)n3)cc2)CC1 [Example 163, 5-{2-[4-(4-Methyl-piperazin-1-yl)-phenylamino]-pyrimidin-4-yl}-2-(tetrahydro-pyran-4-yloxy)-benzonitrile]	< 100	< 100
COc1nc(Nc2nccc(-c3ccc(OCC4CN(C(=O)[C@@H](C)O)C4)c(C#N)c3)n2)ccc1N1CCN(C2COC2)CC1 [Example 280, 2-([1-[(2R)-2-hydroxypropanoyl]azetidin-3-yl]methoxy)-5-[2-([6-methoxy-5-[4-(oxetan-3-yl)piperazin-1-yl]pyridin-2-yl]amino)pyrimidin-4-yl]benzonitrile]	100 to 1000	100 to 1000

— patent US20230019491A1, “PYRIMIDINE TBK/IKKe INHIBITOR COMPOUNDS AND USES THEREOF” (Merck Patent GmbH, priority 2017, published 2023)
